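Method: 48-hour compound exposure of cells in 96-well plates, five concentrations, linear interpolation of endpoints. The concentration for full growth arrest is given as TGI.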
Columns and labels:
Assay in all cases: NCI anticancer screen, dose series, 48 h
[1] = test system: 786-0 renal
[2] = test system: A498 renal
[3] = test system: A549 NSCLC
[4] = test system: ACHN renal
[5] = test system: BT-549 breast
[6] = test system: CAKI-1 renal
[7] = test system: CCRF-CEM leukemia
[8] = test system: COLO 205 colon
[9] = test system: DU-145 prostate
[10] = test system: EKVX NSCLC
[11] = test system: HCC-2998 colon
[12] = test system: HCT-116 colon
[13] = test system: HCT-15 colon
[14] = test system: HL-60(TB) leukemia
[15] = test system: HOP-62 NSCLC
[16] = test system: HOP-92 NSCLC
[17] = test system: HS 578T breast
[18] = test system: HT29 colon
[19] = test system: IGROV1 ovarian
[20] = test system: K-562 leukemia
[21] = test system: KM12 colon
[22] = test system: LOX IMVI melanoma
[23] = test system: M14 melanoma
[24] = test system: MALME-3M melanoma
[25] = test system: MCF7 breast
[26] = test system: MDA-MB-231 breast
[27] = test system: MDA-MB-435
[28] = test system: MDA-N
[29] = test system: MOLT-4 leukemia
[30] = test system: NCI-H226 lung
[31] = test system: NCI-H23 lung
[32] = test system: NCI-H460 lung
[33] = test system: NCI-H522 lung
[34] = test system: NCI/ADR-RES ovarian
[35] = test system: OVCAR-3 ovarian
[36] = test system: OVCAR-4 ovarian
[37] = test system: OVCAR-5 ovarian
[38] = test system: OVCAR-8 ovarian
[39] = test system: PC-3 prostate
[40] = test system: RPMI-8226 leukemia
[41] = test system: RXF 393 renal
[42] = test system: SF-268 CNS
[43] = test system: SF-295 CNS
[44] = test system: SF-539 CNS
[45] = test system: SK-MEL-2 melanoma
[46] = test system: SK-MEL-28 melanoma
[47] = test system: SK-MEL-5 melanoma
[48] = test system: SK-OV-3 ovarian
[49] = test system: SN12C renal
[50] = test system: SNB-19 CNS
[51] = test system: SNB-75 CNS
[52] = test system: SR leukemia
[53] = test system: SW-620 colon
[54] = test system: T-47D breast
[55] = test system: TK-10 renal
[56] = test system: U251 CNS
[57] = test system: UACC-257 melanoma
[58] = test system: UACC-62 melanoma
[59] = test system: UO-31 renal
[60] = test system: DMS 114 small cell lung
[61] = test system: DMS 273 small cell lung
[62] = test system: KM20L2 colon
[63] = test system: LXFL 529 NSCLC
[64] = test system: M19-MEL melanoma
[65] = test system: SNB-78 CNS
[66] = test system: XF 498 CNS

Measured: TGI

COc1cc(NC=C2C(=O)OC(C)(C)OC2=O)c(OC)c(C)c1OC
not listed: [60] | [61] | [62] | [63] | [64] | [65] | [66]
> 100 µM: all other assays above

CC(=O)NNc1nc(C)c(C(=O)NNC(=O)C(=O)Nc2ccc([N+](=O)[O-])cc2C#N)s1
not listed: [5] | [6] | [9] | [16] | [17] | [25] | [26] | [27] | [28] | [34] | [39] | [41] | [43] | [51] | [54]
> 100 µM: all other assays above

Source: PubChem BioAssay (NCI)
